The subject of data set [1] is Candida albicans. The data set can be described thus: Antifungal activity against Candida albicans MTCC 227 assessed as growth inhibition by broth microdilution method. Type of data set: functional. For orientation: Dilution methods test growth across graded concentrations, often in twofold steps.
For data set [2], the system named is Staphylococcus aureus. Nature of the data set: Antibacterial activity against Staphylococcus aureus MTCC 96 assessed as growth inhibition by broth microdilution method. Type of data set: functional.
Data set [3] relates to Streptococcus pyogenes. The data set can be described thus: Antibacterial activity against Streptococcus pyogenes MTCC 443 assessed as growth inhibition by broth microdilution method. The data set is classed as functional.
Data set [4] can be described thus: Cytotoxicity against mouse J774A1 cells after 72 hrs by MTT assay. The data set is classed as cell-based, J774.A1.
Data set [5] deals with Mycobacterium tuberculosis. The data set can be described thus: Antitubercular activity against Mycobacterium tuberculosis H37Rv assessed as growth inhibition after 12 to 28 days by Lowenstein-Jensen agar method. The data set is classed as functional. The note with it: for MIC: Mycobacterium tuberculosis, H37Rv.
In data set [6] the test system is Aspergillus clavatus. The data set can be described thus: Antifungal activity against Aspergillus clavatus MTCC 1323 assessed as growth inhibition by broth microdilution method. The data set is classed as functional.
The subject of data set [7] is Pseudomonas aeruginosa. Nature of the data set: Antibacterial activity against Pseudomonas aeruginosa MTCC 2488 assessed as growth inhibition by broth microdilution method. The data set is classed as functional.
Data set [8] is described as follows: Selectivity index, ratio of CC50 for mouse J774A1 cells to IC50 for promastigote stage of Leishmania braziliensis H3. The data set is classed as functional, J774.A1.
For data set [9], the system named is Leishmania braziliensis. Nature of the data set: Antileishmanial activity against promastigote stage of Leishmania braziliensis H3 assessed as parasite growth inhibition after 72 hrs by Neubauer chamber counting method. Type of data set: functional, organism-based. The settings on record: for pIC50: Leishmania braziliensis, H3, 72 h, read-out: IC50.
Data set [10] deals with Candida albicans. Nature of the data set: Potency index, ratio of griseofulvin MIC to compound MIC for Candida albicans MTCC 227. Type of data set: functional.
The test system of data set [11] is Aspergillus niger. Nature of the data set: Antifungal activity against Aspergillus niger MTCC 282 assessed as growth inhibition by broth microdilution method. Type of data set: functional.
Data set [12] deals with Escherichia coli. Nature of the data set: Antibacterial activity against Escherichia coli MTCC 442 assessed as growth inhibition by broth microdilution method. Type of data set: functional.
The subject of data set [13] is Pseudomonas aeruginosa. Nature of the data set: Potency index, ratio of ampicillin MIC to compound MIC for Pseudomonas aeruginosa MTCC 2488. Type of data set: functional.
The subject of data set [14] is Staphylococcus aureus. The data set can be described thus: Potency index, ratio of ampicillin MIC to compound MIC for Staphylococcus aureus MTCC 96. The data set is classed as functional.
The test system of data set [15] is Streptococcus pyogenes. The data set can be described thus: Potency index, ratio of ampicillin MIC to compound MIC for Streptococcus pyogenes MTCC 443. Type of data set: functional.
The subject of data set [16] is Escherichia coli. Nature of the data set: Potency index, ratio of ampicillin MIC to compound MIC for Escherichia coli MTCC 442. The data set is classed as functional.

pIC50: −log10 of the molar value. Converted amounts (≈) assume the structure as drawn.

As for `COc1cc(/C=C/C(=O)c2cccc([N+](=O)[O-])c2)cc(OC)c1OC`, the MIC99 is 250 µg/mL in data set [1]; 100 µg/mL in data set [2]; 100 µg/mL in data set [3]; greater than 1000 µg/mL in [6]; 250 µg/mL in [7]; greater than 1000 µg/mL in data set [11]. In addition, the MIC99 in data set [12] is 250 µg/mL. Further, the midpoint of cytotoxicity in data set [4], the CC50 at 72 h, lay at 49 µM. In addition, the “growth inhibition (GI)” value in data set [5] was 99%. In addition, the MIC in data set [5] was 25 µg/mL (≈ 72.8 µM). Also, in data set [8], the “Ratio CC50/IC50” value is given as 5.26. Besides, the pIC50 in [9] was 5.03. For the same compound, in data set [10], the Ratio worked out at 2.

In the case of `COc1ccc(C2CC(c3cccc([N+](=O)[O-])c3)=NN2C(C)=O)cc1OC` (configuration not stated), the MIC99 in data set [1] stood at 200 µg/mL; in data set [2], 125 µg/mL; in data set [3] it was 125 µg/mL; in data set [6], 500 µg/mL; in data set [7], 250 µg/mL; in data set [11] it was 500 µg/mL. Further, the MIC99 in data set [12] was determined as 500 µg/mL. The “growth inhibition (GI)” value in data set [5] worked out at 99%. For the same compound, in data set [5], the MIC is 500 µg/mL (≈ 1350 µM). Besides, the IC50 entry in [9] is reported as “Not Active”. Besides, the Ratio in data set [10] came out at 2.

Consider `O=[N+]([O-])c1cccc(C2=NNC(c3ccc4ccccc4c3)C2)c1` (configuration not stated), for which the Ratio in [13] was found to be 4; in data set [10], 5; in data set [14], 2. Also, the MIC99 is 100 µg/mL in data set [1]; 50 µg/mL in data set [2]; 125 µg/mL in [3]; 250 µg/mL in data set [6]; 25 µg/mL in data set [7]; 100 µg/mL in data set [11]. Besides, the MIC99 in data set [12] was determined as 250 µg/mL. Besides, the “growth inhibition (GI)” value in [5] came to 99%. Moreover, the MIC in data set [5] was 62.5 µg/mL (≈ 197 µM). Also, in [9], the IC50 result is “Not Active”.

In the case of `COc1ccc(/C=C/C(=O)c2cccc([N+](=O)[O-])c2)c(OC)c1OC`, the MIC99 was 1000 µg/mL in [1]; 250 µg/mL in data set [2]; 250 µg/mL in [3]; greater than 1000 µg/mL in data set [6]; 200 µg/mL in [7]; greater than 1000 µg/mL in data set [11]. Further, the MIC99 in data set [12] came out at 200 µg/mL. In data set [4], this compound registered a CC50 at 72 h of 89.5 µM. Further, the “growth inhibition (GI)” value in [5] stood at 98%. Besides, the MIC in data set [5] came out at 500 µg/mL (≈ 1460 µM). In [8], the “Ratio CC50/IC50” value is 10.06. In addition, the pIC50 in data set [9] was 5.05.

As for `O=C(/C=C/C=C/c1ccccc1)c1cccc([N+](=O)[O-])c1`, the MIC99 in data set [1] stood at 250 µg/mL; in [2] it was 125 µg/mL; in data set [3], 125 µg/mL; in [6], 1000 µg/mL; in [7] it was 100 µg/mL; in data set [11], 1000 µg/mL. Further, the MIC99 in [12] was 200 µg/mL. In addition, in data set [5], the “growth inhibition (GI)” value is reported as 97%. The MIC in data set [5] came to 1000 µg/mL (≈ 3580 µM). Also, in data set [9], the IC50 entry is listed as “Not Active”. Also, the Ratio in data set [10] amounted to 2.

Take `COc1cc(C2CC(c3cccc([N+](=O)[O-])c3)=NN2C(C)=O)cc(OC)c1OC` (configuration not stated): the MIC99 was 250 µg/mL in data set [1]; 250 µg/mL in data set [2]; 250 µg/mL in data set [3]; 500 µg/mL in data set [6]; 200 µg/mL in [7]; 500 µg/mL in data set [11]. Further, in [12], the MIC99 came to 250 µg/mL. Moreover, in [5], the “growth inhibition (GI)” value is 99%. Besides, the MIC in data set [5] stood at 12.5 µg/mL (≈ 31.3 µM). Further, the IC50 result in data set [9] is “Not Active”. In addition, in data set [10], the Ratio was determined as 2.

Take `CC(=O)N1N=C(c2cccc([N+](=O)[O-])c2)CC1/C=C/c1ccccc1` (configuration not stated): the figures for the Ratio in data set [15], in data set [10] and in data set [16] were 5, 2 and 4, respectively. For the same compound, the MIC99 in [1] is 500 µg/mL; in [2] it was 250 µg/mL; in data set [3] it was 25 µg/mL; in data set [6], greater than 1000 µg/mL; in [7] it was 100 µg/mL; in data set [11], greater than 1000 µg/mL. Also, the MIC99 in data set [12] came out at 62.5 µg/mL. Moreover, the “growth inhibition (GI)” value in data set [5] was 98%. Also, the MIC in [5] was 250 µg/mL (≈ 745 µM). Moreover, the IC50 entry in data set [9] is “Not Active”.

`O=C(/C=C/c1ccc2c(c1)OCO2)c1cccc([N+](=O)[O-])c1`: the MIC99 in [1] amounted to 250 µg/mL; in [2], 250 µg/mL; in data set [3] it was 250 µg/mL; in [6], 1000 µg/mL; in data set [7], 250 µg/mL; in data set [11], 1000 µg/mL. The MIC99 in [12] was determined as 250 µg/mL. For the same compound, the “growth inhibition (GI)” value in data set [5] is recorded as 99%. The MIC in data set [5] was 250 µg/mL (≈ 841 µM). For the same compound, the IC50 result in [9] is “Not Active”. In addition, the Ratio in [10] is 2.

For `O=C(/C=C/c1ccc2ccccc2c1)c1cccc([N+](=O)[O-])c1`, the MIC99 in [1] came to 500 µg/mL; in data set [2] it was 100 µg/mL; in data set [3], 125 µg/mL; in [6], 1000 µg/mL; in data set [7], 200 µg/mL; in data set [11], 1000 µg/mL. Besides, the MIC99 in data set [12] was 62.5 µg/mL. Besides, the “growth inhibition (GI)” value in data set [5] was determined as 98%. For the same compound, in data set [5], the MIC is 500 µg/mL (≈ 1650 µM). Moreover, the IC50 result in data set [9] was “Not Active”. For the same compound, the Ratio in data set [16] and in data set [14] was 2 each time.

One may read the MIC99 as the lowest concentration that inhibits either 99% of growth or 99% of the strains tested, depending on the study. In general, CC50 refers to the concentration that lowers cell viability or growth by half. As a reminder, the MIC is the lowest concentration that inhibits growth of the organism. In general, pIC50 refers to the IC50 on a negative log10 scale, so that one unit is a factor of ten.
